The text below walks through data of patent publication US8138159B2, “Composition for inhibiting function of human Flt3” (Takara Bio Inc., priority 2003, dated 2012).

Common to all, as to type: cell-based, human
The test system of series [1] is HL60 cells (WT-low expressing). Description: cell growth activity, Premix WST1 (Example 2). Here is the method:
(§1) The cells placed in a 96-well plate at a density of 2×10^4 cells/well were cultured in an RPMI medium (containing 10% by volume FBS). The cells were transfected with each of the synthesized (10 nM each) siRNAs, and after 20 hours, the cell growth activity was determined with Premix WST1 reagent (trade name, manufactured by TAKARA BIO INC.). Relative growth ability (%) compared with the growth ability of the control (cells subjected to transfection without adding an siRNA) was determined. Each experiment was carried out with n=3, and the mean was determined.
(Tetrazolium dyes change colour on reduction, which living cells bring about.)

In series [2] the test system is MV4-11 cells (ITD mutation-highly expressing). Description: cell growth activity, Premix WST1 (Example 2). Here is the method:
as §1

Series [3] concerns EoL1 cells (WT-highly expressing). The experiment in a line: cell growth activity, Premix WST1 (Example 2). Here is the method: as §1
The subject of another series is Flt3 mRNA. Description: Flt3 mRNA interference by synthesized siRNA, real-time RT-PCR (Example 1). As to conditions: for inhibition percentage (%) of the relative mRNA expression level (Flt3 mRNA/GAPDH mRNA): siRNA 200 pmol, Oligofectamin, after 24 hours, vs cells transfected without siRNA. As for the experimental part: Each kind of cell selected from HL-60 cells [Flt3 WT (wild-type) low expressing cells; ATCC CCL-240], EoL-1 cells [Flt3 WT (wild-type) highly expressing cells; ECACC 94042252] and MV4-11 cells [Flt3/ITD highly expressing cells; ATCC CRL-9591] was cultured at 37° C. in an RPMI 1640 medium (manufactured by TAKARA BIO INC.) supplemented with 10% by volume fetal bovine serum (FBS) in the presence of 5% by volume CO2.
Then, the cells (2×10^5 cells/nil) were pre-cultured for 24 hours in a 6-well plate, then recovered, and suspended so as to give a density of 1.5×10^5 cells/ml in Opti-MEM (trade name, manufactured by Invitrogen), and the synthesized siRNA was added to the resulting suspension so as to give a final concentration of 200 pmol. Transfection was carried out using Oligofectamin (trade name, manufactured by Invitrogen) in an amount of 4 μl/reaction, according to an Invitrogen's protocol attached to Oligofectamin (trade name). As a control, the cells were subjected to similar operations without adding the siRNA. The unspecific influence of the siRNA was evaluated using an siRNA to a BCR/ABL chimera mRNA.
Confirmation of RNA interference of the target gene was carried out by determining change in mRNA level by a real-time RT-PCR method as shown below.
Using Oligofectamin (trade name, manufactured by Invitrogen), each kind of cell was transfected with the synthesized siRNA. After 24 hours, whole RNA was extracted from the resulting cells with TRIzol™ reagent (manufactured by Invitrogen), and the resulting product was treated with DNaseI (manufactured by TAKARA BIO INC.). The transfection, the extraction of the whole RNA and the treatment with DNaseI were carried out according to a manufacturer's protocol of the reagent used.
The real-time PCR method was carried out using a Real Time One Step RNA PCR Kit (trade name, manufactured by TAKARA BIO INC.), 100 ng of the resulting RNA as a template and a pair of primers (each 20 pmol), that is, an oligonucleotide having the nucleotide sequence of SEQ ID NO: 13 and an oligonucleotide having the nucleotide sequence of SEQ ID NO: 14. In the real-time RT-PCR method, change in fluorescence based on SYBER Green I (manufactured by TAKARA BIO INC.) was determined with Light Cycler (trade name, manufactured by Roche). The RNA level was standardized by similarly determining GAPDH mRNA with primers set forth in SEQ ID NOs: 15 and 16.
The PCR conditions were as follows: after incubation was carried out at 95° C. for 30 seconds, the reaction was carried out in 40 cycles each consisting of the reaction at 95° C. for 1 second, then at 60° C. for 10 seconds, and at 72° C. for 30 seconds.
The inhibition percentage (%) of the relative mRNA expression level (Flt3 mRNA/GAPDH mRNA) changed by using the synthesized siRNA, as calculated assuming that the relative mRNA expression level (Flt3 mRNA/GAPDH mRNA) of the cells only subjected to each operation of the transfection without adding the synthesized siRNA was 100%, was shown in Table 1.
Background: Quantitative PCR measures a nucleic acid by following its amplification.

[4] abbreviates: siRNA 10 nM, after 20 hours, n=3 mean, control = transfection without siRNA.
Where [5] appears, read: MV4-11 (ITD mutation-highly expressing).

For the substance “siRNA3: siRNA to juxtamembrane region (Flt3/JMD region) (target SEQ ID NO: 7); sense SEQ ID NO: 8, antisense SEQ ID NO: 9 (sense UAUGAAUAUGAUCUCAAAUTT; antisense AUUUGAGAUCAUAUUCAUATT; chemistry not given here)”, the “Ratio of cell-growth activation defining RNA interference effect in HL60 as 1” value in series [1] (HL60, the reference itself) was “(1)”; in series [2], “(0.41)”; in series [3], “(0.50)”. Besides, the “Relative growth ability (%) compared with the control” value in series [1] (HL60, siRNA 10 nM, after 20 hours, n=3 mean, control = transfection without siRNA) is reported as 90.3%; in series [2] (setting [4]), 37.5%; in series [3] (setting [4]), 45.1%. The “Relative ratio of inhibition defining RNA interference effect in EoL1 as 1” value is reported as “(1)” with Flt3 mRNA (EoL1 (WT-highly expressing), the reference itself) and “(1)” with Flt3 mRNA (setting [5]). The “inhibition percentage (%) of the relative mRNA expression level (Flt3 mRNA/GAPDH mRNA)” value in the series on Flt3 mRNA (EoL1 (WT-highly expressing)) turned out to be 63%; in the series with Flt3 mRNA (HL60 (WT-low expressing)), 38%; in the series with Flt3 mRNA (setting [5]), 65%. Also, the “selective inhibition of Flt3 mRNA expression relative to the inhibition ratio in the Flt3 low expressing cells” value with Flt3 mRNA (Flt3 highly expressing cells vs Flt3 low expressing cells) was not below 1.6 fold. The “inhibition of Flt3 mRNA expression relative to the cells without using an siRNA” value in the series with Flt3 mRNA (Flt3 highly expressing cells, regardless of the presence or absence of ITD mutation) was 65%.
